In patent US12492403B2, “Aptamers and the use thereof in the treatment of cancer” (FUNDACIÓN PARA LA INVESTIGACIÓN BIOMÉDICA DEL HOSPITAL …, priority 2018, dated 2025):

Columns and labels:
MNK1a = MNK1a (Homo sapiens, UniProt Q9BUB5); assay: ELONA binding of biotin-labeled aptamer
Method: (§1) FIGS. 5A-5C. Characterization of the interaction of aptamer apMNKQ2 with MNK1 by means of ELONA. (A) ELONAs in which GST-MNKs previously adsorbed in 96-well plates at 0.2 μg/well (3 pmol/well) with apMNKQ2-Bio at 20 nM were incubated (FIG. 5A). The bars represent the mean±SEM of at least 3 independent experiments (*p<0.05, **p<0.01, and ***p<0.001 with respect to the blank and c p<0.05, b p<0.01, and a p<0.001 MNK1b with respect to MNK1a). ELONAs in which concentrations of 0 to 500 nM of apMNKQ2 were incubated (FIGS. 5A and 5C).
(§2) To determine the binding of the aptamers to MNK1a or MNK1b, 200 ng of protein/well diluted in a coating solution (KPL, USA) in a final volume of 100 μL/well were added to a Maxisorp Nunc 96-well ELISA plate (ThermoFisher Scientific, USA). The plate was incubated overnight at 4° C. under stirring. Aptamers were then added at the corresponding concentration according to the assay, in a final volume of 100 μL/well of BSA-free aptamer buffer for 1 hour at 37° C. under stirring. All the aptamers used were labeled with biotin and had been previously denatured at 90° C. for 10 minutes and then kept at 4° C. for 10 minutes in the BSA-free aptamer buffer. To detect the binding of the aptamer to the protein, 100 μL/well of streptavidin-peroxidase (GE Healthcare, United Kingdom) diluted 1/1000 in the aptamer buffer at 37° C. for 1 hour under stirring were added. To develop the plate, 100 μL/well of ABTS solution (Roche, Switzerland) were added, and it was incubated in darkness at room temperature, with measurements being taken every 10 minutes at a wavelength of 405 nm in an Infinite F200 spectrophotometer (TECAN, Switzerland).

MNK1aΔ77 = MNK1aΔ77 (Homo sapiens, UniProt Q9BUB5); assay: ELONA binding of biotin-labeled aptamer; details: apMNKQ2-Bio at 20 nM, GST-MNK1aΔ77 0.2 μg/well
Method: as §1, §2

MNK1b = MNK1b (Homo sapiens, UniProt Q9BUB5); assay: ELONA binding of biotin-labeled aptamer
Method: as §1, §2

MNK1ΔCt = MNK1ΔCt (Homo sapiens, UniProt Q9BUB5); assay: ELONA binding of biotin-labeled aptamer; details: apMNKQ2-Bio at 20 nM, GST-MNK1ΔCt 0.2 μg/well
Method: as §1, §2

[1] = tested on: orthotopic xenograft of MDA-MB-231 cells; assay: In vivo efficacy in orthotopic xenograft mouse model; design: species or system nude mice
Method: FIGS. 19A-19D. In vivo efficacy of apMNKQ2 in an orthotopic xenograft mouse model of MDA-MB-231 cells. (A) Evolution of the weight of the mouse over days of treatment with apMNKQ2 (FIG. 19A). (B) Relative tumor volume (RTV) over days of treatment (FIG. 19B). (C) Tumor weight after sacrificing the animal (FIG. 19C). (D) Immunohistochemical determination of proliferating cell nuclear antigen (PCNA) levels (FIG. 19D). The analysis of the positive nuclei was performed with the imageJ program. The boxes represent the mean±the maximum and minimum of 5-8 animals (*p<0.05 with respect to the control group).
FIGS. 20A-20D. Activation of apoptosis and expression of EMT markers in tumors from the mice with an orthotopic xenograft of MDA-MB-231 cells of FIG. 19. Immunodetection with specific antibodies by SDS-PAGE 12% of “cleaved” PARP ([…]), a-Spectrin (FIG. 20B) and the anti-apoptotic protein MCL1 (FIG. 20C) in tissue of mice treated with 1.8 mg/Kg of apMNKQ2 or with the vehicle. Expression levels of occludin (epithelial status marker) and FSP1 (mesenchymal marker) in tissue of mice treated with 1.8 mg/kg of apMNKQ2 or with the vehicle using qPCR (FIG. 20D). The values obtained were normalized with respect to β-actin. The boxes represent the mean±the maximum and the minimum of 4-5 animals (*p<0.05, **p<0.01 with respect to the control group).
For transfection in the in vivo model, the in vivo-jetPEI® transfection system (Polyplus, France) was used according to the manufacturer's instructions. The aptamer and jetPEI® reagent were separately diluted in glucose for the subsequent addition of the jetPEI® complex to that of the aptamer, such that the final glucose concentration is 5%. It was added to the cultures or injected into animals according to the assay.
Total RNA was obtained from cells using the NucleoZOL reagent ([…]-NAGEL, Germany) according to the manufacturer's instructions. Obtained RNA purity and integrity analyses were performed using the Experion™ RNA HighSens Analysis Kit chip (BioRad, USA). For the quantitative analysis of the mRNA levels, cDNAs were obtained with the SensiFAST™ cDNA synthesis kit (Bioline, United Kingdom) and real-time PCR was carried out in an IQ5 thermocycler (BioRad, USA) with the FastGene IC Green 2×qPCR Universal Mix kit (NIPPON Genetics, Germany).
In vivo assays were performed with nude mice inoculated with MDA-MB-231 cells and orthotopic tumors were generated. When these tumors reached a volume of 100 mm^3, the mice were randomly distributed into two groups of 9 animals. The treated group (1.8 mg/kg) was intravenously injected with 100 μl of 5% glucose containing 46 μg (5 nmol) of apMNKQ2 and 5.6 μl of jetPEI® transfectant (N/P ratio of 6) three times a week. The control group was injected with the 5% glucose solution containing the same volume of in vivo-jetPEI® reagent and aptamer buffer. As monitoring parameters, the tumor volume, assuming they are ellipsoids, and the weight of the animals were measured. At 18 days, the animals were sacrificed and the tumors were weighed and divided into two fragments, one to be frozen and another for fixing and inclusion in paraffin.
The immunohistochemical determination of the proliferating cell nuclear antigen (PCNA), sections of the paraffinized samples were made and they were then deparaffinized and rehydrated. The antigen was unmasked by incubating the sections in a 10 mM citrate buffer in a pressure cooker at maximum pressure for 2 minutes. After performing two quick washes with distilled water and two 5-minute washes with TBS, the sections were incubated in a blocking solution (3% fetal bovine serum in TBS with 0.05% triton X-100) for 30 minutes at room temperature. The samples were then incubated with the primary antibody PCNA (Santa Cruz Biotechnology, USA) at a dilution of 1:100 at room temperature overnight. […]

[2] = tumors of mice treated with 1.8 mg/kg vs vehicle

MNK1b, sequence (Q9BUB5 1-347 isoform Q9BUB5-3): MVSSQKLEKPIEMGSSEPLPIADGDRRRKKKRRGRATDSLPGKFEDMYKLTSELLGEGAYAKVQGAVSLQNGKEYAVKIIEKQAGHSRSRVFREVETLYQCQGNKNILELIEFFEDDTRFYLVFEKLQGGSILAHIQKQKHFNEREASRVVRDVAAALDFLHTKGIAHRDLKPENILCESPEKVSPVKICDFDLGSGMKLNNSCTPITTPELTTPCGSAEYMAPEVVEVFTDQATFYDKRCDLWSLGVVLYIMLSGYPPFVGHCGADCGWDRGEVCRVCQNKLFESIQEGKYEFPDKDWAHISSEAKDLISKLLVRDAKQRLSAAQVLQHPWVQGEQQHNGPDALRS
MNK1a, sequence (Q9BUB5 1-424 isoform Q9BUB5-2): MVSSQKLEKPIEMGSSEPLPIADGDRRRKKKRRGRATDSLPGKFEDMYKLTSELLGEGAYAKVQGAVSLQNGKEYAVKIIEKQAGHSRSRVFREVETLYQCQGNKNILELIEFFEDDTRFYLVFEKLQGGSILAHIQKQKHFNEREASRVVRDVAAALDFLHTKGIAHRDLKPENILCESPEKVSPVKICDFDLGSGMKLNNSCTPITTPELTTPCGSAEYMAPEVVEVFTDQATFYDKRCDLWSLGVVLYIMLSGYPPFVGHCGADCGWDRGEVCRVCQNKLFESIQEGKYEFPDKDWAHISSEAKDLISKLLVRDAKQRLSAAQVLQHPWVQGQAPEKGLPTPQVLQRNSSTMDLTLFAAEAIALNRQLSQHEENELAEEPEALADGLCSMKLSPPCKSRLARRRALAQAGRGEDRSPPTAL
MNK1ΔCt, sequence (Q9BUB5 1-335 isoform Q9BUB5-2 limits assumed): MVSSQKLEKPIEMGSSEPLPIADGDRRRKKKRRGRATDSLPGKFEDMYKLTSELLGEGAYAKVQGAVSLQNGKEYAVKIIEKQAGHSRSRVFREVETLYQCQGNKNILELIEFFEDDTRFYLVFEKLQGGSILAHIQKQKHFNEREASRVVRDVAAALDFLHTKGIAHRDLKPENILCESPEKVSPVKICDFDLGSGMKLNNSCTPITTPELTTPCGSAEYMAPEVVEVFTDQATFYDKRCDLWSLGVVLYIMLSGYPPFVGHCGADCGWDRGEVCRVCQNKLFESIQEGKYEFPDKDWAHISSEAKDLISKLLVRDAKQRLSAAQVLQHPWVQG
MNK1aΔ77, sequence (Q9BUB5 1-347 isoform Q9BUB5-2 limits assumed): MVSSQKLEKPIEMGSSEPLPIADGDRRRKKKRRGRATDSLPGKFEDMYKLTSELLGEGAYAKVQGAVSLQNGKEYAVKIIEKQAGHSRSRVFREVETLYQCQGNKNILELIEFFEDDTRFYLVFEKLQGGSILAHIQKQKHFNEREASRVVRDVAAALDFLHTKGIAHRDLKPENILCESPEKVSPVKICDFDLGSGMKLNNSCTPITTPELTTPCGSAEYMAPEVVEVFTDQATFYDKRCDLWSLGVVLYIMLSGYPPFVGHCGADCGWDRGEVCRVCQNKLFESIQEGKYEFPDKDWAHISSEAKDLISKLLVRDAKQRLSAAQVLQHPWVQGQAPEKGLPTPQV

Q: Which results are given for “5′TGGGGTGGGCGGGCGGGGGTGGGGGTGGT-3′ (DNA, backbone and methylation of C not given here; further chemistry not fully specified) [apMNKQ2]”?
A: Kd (MNK1a; ELONA, biotin-labeled aptamer 0 to 500 nM, GST-MNK1a): 66.1 ± 20.2 nM; binding (ELONA) (MNK1a; apMNKQ2-Bio at 20 nM, GST-MNK1a 0.2 μg/well): binds significantly; binding (ELONA) (MNK1aΔ77): not significant; Kd (MNK1b; ELONA, biotin-labeled aptamer 0 to 500 nM, GST-MNK1b): 15.5 ± 2.36 nM; binding (ELONA) (MNK1b; apMNKQ2-Bio at 20 nM, GST-MNK1b 0.2 μg/well): binds significantly; affinity for MNK1b relative to MNK1a (MNK1b; from ELONA KD values): four-fold higher; binding (ELONA) (MNK1ΔCt): not significant; decrease of cell proliferation in the tumor (PCNA immunohistochemistry) with respect to the control group ([1]; 1.8 mg/kg intravenously three times a week, 18 days): 50%; decrease of the weight of the tumor after sacrificing the animals ([1]; 1.8 mg/kg intravenously three times a week, 18 days, not statistically significant): 27%; weight of the mice ([1]; 1.8 mg/kg intravenously with jetPEI three times a week, 18 days): no changes; relative size of the tumor (relative tumor volume) vs control group ([1]; intravenous with jetPEI three times a week, statistically significant at 7 and 18 days of treatment): smaller; apoptosis in tumors (cleaved PARP, α-spectrin, MCL1 immunodetection) ([1]; tumors of mice treated with 1.8 mg/Kg vs vehicle): apoptotic effect; mRNA levels of the mesenchymal marker FSP1 in tumors (qPCR) [1, 2]: decrease (although not significant); occludin epithelial marker expression in tumors (qPCR) [1, 2]: increases significantly
